Assay results: patent US11427615B2, “Peptide compound and application thereof, and composition containing peptide compound” (XDCEXPLORER (SHANGHAI) CO., LTD., priority 2017, dated 2022)
Starred links: 1 amine or outer side, 2 acyl side, 3 side chain; linkers in the order of their positions; H or OH if unused. Non-standard residues stand in square brackets, D forms with d. Residues, ends and D or L forms follow the SMILES beside them. *: point of attachment. X13 = CCCCCCCCCCCCCCCCSC1CC(=O)N(CCOCCOCCOCCOCCOCCOCCOCCOCCC(=O)*)C1=O; X1 = CCCCCCCCCCCC(=O)NCCOCCOCCOCCOCCOCCSC1CC(=O)N(CCCC(=O)*)C1=O; X2 = CCCCCCCCCCCC(=O)NCCOCCOCCOCCOCCOCCn1cc(CC(=O)*)nn1; cPrCO(1-aminomethyl) = O=C(C1(CN[*:1])CC1)[*:2]; dPhe(2,4-Cl2) = N[C@H](Cc1ccc(Cl)cc1Cl)C(=O)O; Pro(4,4-F2) = O=C(O)[C@@H]1CC(F)(F)CN1; dPhe(4-F) = N[C@H](Cc1ccc(F)cc1)C(=O)O; Arg(Me) = CNC(=N)NCCC[C@H](N)C(=O)O; Hyp = O=C(O)[C@@H]1C[C@@H](O)CN1; azaPro = O=C(N1CCCN1[*:1])[*:2]; 2Thi = N[C@@H](Cc1cccs1)C(=O)O; αMeL = CC(C)C[C@](C)(N)C(=O)O; Cba = N[C@@H](CC1CCC1)C(=O)O; Pip = O=C(O)[C@@H]1CCCCN1; Ac6c = NC1(C(=O)O)CCCCC1; Aze = O=C(O)[C@@H]1CCN1; azaGly = NNC(=O)O

System: not listed separately
Assay: Plasma stability, LC-MS/MS
Format: in vitro ADME
Settings: rat plasma, 37° C., final concentration 500 ng/ml, time points 0 minutes, 1, 2 and 4 hours; calculated half-life; read-out: Rat plasma (T½ (h)) (converted)
Experimental: Effect Embodiment 2 Experimental Data on Plasma Stability of Some Compounds
1. Preparation of 50 mM Phosphate Buffer:
The 5.750 g Na2HPO4, 1.141 g NaH2PO4. and 4.095 g NaCl (Shanghai Titan) weighed was dissolved in 1000 mL ultrapure water and the pH was adjusted to 7.4 to give 50 mM phosphate buffer containing 70 mM NaCl. The prepared phosphoric acid buffer solution was stored in the refrigerator at 4° C. and was valid for one week.
2. Preparation of compound stock solution:
1). 5 mg/mL of test compound: 5 mg of compound was weighted and dissolved in 1 mL of DMSO.
2). 20 mM control: 2.728 mg of Fuka was dissolved in 0.5 mL of DMSO. 3.878 mg of benzalkonium bromide was dissolved in 0.5 mL of DMSO (Amresco).
3. Preparation of experimental plasma:
The frozen plasma (human: Shanghai wise chemistry; Rats and mice: Shanghai Sciple-Bikai; Dogs and monkeys: Suzhou Xishan Zhongke) were taken out of the −80° C. refrigerator, immediately placed in a 37° C. water bath, slightly shaken to melt it, then the thawed plasma was poured into a centrifuge tube, centrifuged at 3000 rpm for 8 min, and the supernatant was taken for experiments. The pH value of plasma was detected by a pH Meter & Sensor (METTLER TOLEDO). Only plasma with a pH value between 7.4 and 8 was used in the experiment. The plasma was placed on an ice bath for later use.
4. Preparation of administration solution:
1). 125 µg/ml test compound solution: 5 μL of 5 mg/mL test compound (see step 2) was added into 195 μL DMSO; 500 μM control solution: 20 mM control stock solution (see step 2) was added to 195 μL DMSO.
2). 0.5% BSA phosphate buffer solution: 0.05 g BSA was added to 10 mL phosphate buffer solution (see step 1);
3). 5 µg/ml of test compound administration solution: 40 μL of 125 μg/mL of test compound solution was added into 960 μL 0.5% BSA phosphate buffer solution, stirred and mixed evenly, and the administration solution was preheated in a 37° C. water bath for 5 minutes.
20 μM reference substance administration solution: 40 μL of 500 μM reference substance administration solution was added into 960 μL 0.5% BSA phosphate buffer solution, stirred and mixed evenly, and the administration solution was preheated in a 37° C. water bath for 5 minutes.
5. 10 μL of 5 μg/mL of the test compound and 20 μM of the control substance administration solution were respectively added to the wells set at different time points (0 minutes, 1 hour, 2 hours and 4 hours) on the 96-well plate, and the number of duplicate samples was 3.
6. 500 μL of ACN (IS) containing 5% FA was added to the well set at 0 minute hour, then 90 μL of plasma was added, after mixing, sealing film was pasted and placed at 4° C. (number of duplicate samples was 3).
7. 90 μL of plasma was added to the wells with set time points of 1 hour, 2 hours and 4 hours respectively, the number of duplicate samples was 3, and timing was started (the final concentration of the test compound was 500 ng/ml; The control was 2 μM).
9. All samples (0 minutes, 1 hour, 2 hours and 4 hours) at different time points on a 96-well plate were shaken for 10 minutes at 600 rpm/min on an oscillator (MTS 2/4, IKA), and then the samples were centrifuged for 15 minutes at 5594×g in a centrifuge (Multifuge×3R, thermo Fisher).
10. 150 μL of supernatant was taken from the centrifuged sample and sent to LC-MS/MS for analysis (conventional polypeptide LC-MS/MS analysis method).

| SMILES | half-life at 500 ng/ml |
| --- | --- |
| CCCCCCCCCCCC(=O)NCCOCCOCCOCCOCCOCCn1cc(CC(=O)N[C@H](Cc2ccc(O)cc2)C(=O)N2C[C@H](O)C[C@H]2C(=O)N[C@@H](CC(N)=O)C(=O)N[C@H](C(=O)N[C@@H](Cc2ccccc2)C(=O)NNC(=O)N[C@@H](CC(C)C)C(=O)N[C@@H](CCCNC(=N)NC)C(=O)N[C@@H](Cc2c[nH]c3ccccc23)C(N)=O)[C@@H](C)O)nn1 [YA-326, Dodecanoyl-NH-PEG5-1,2,3-Triazole-Cyclic-Butanoyl-(D-Tyr)-Hyp-Asn-Thr-Phe-Azag-Leu-Arg(Me)-Trp-NH2] (X2-[dY][Hyp]NTF[azaGly]L[Arg(Me)]W-NH2) | 4.97 h |
| CCCCCCCCCCCC(=O)NCCOCCOCCOCCOCCOCCSC1CC(=O)N(CCCC(=O)N[C@H](Cc2ccc(O)cc2)C(=O)N2C[C@H](O)C[C@H]2C(=O)N[C@@H](CC(N)=O)C(=O)N[C@H](C(=O)N[C@@H](Cc2ccccc2)C(=O)NNC(=O)N[C@@H](CC(C)C)C(=O)N[C@@H](CCCNC(=N)NC)C(=O)N[C@@H](Cc2c[nH]c3ccccc23)C(N)=O)[C@@H](C)O)C1=O (stereo partly drawn) [YA-325, Dodecanoy-(NH-PEG5-CH2CH2S)-(maleimide-butanoyl-)-(D-Tyr)-Hyp-Asn-Thr-Phe-azaG-Leu-Arg(Me)-Trp-NH2] (X1-[dY][Hyp]NTF[azaGly]L[Arg(Me)]W-NH2) | 4.26 h |
| CNC(=N)NCCC[C@H](NC(=O)[C@H](CC(C)C)NC(=O)NNC(=O)[C@H](Cc1ccccc1)NC(=O)[C@@H](NC(=O)[C@H](CC(N)=O)NC(=O)[C@@H]1CC(F)(F)CN1C(=O)[C@@H](Cc1ccc(Cl)cc1Cl)NC(C)=O)[C@@H](C)O)C(=O)N[C@@H](Cc1c[nH]c2ccccc12)C(N)=O [YA-180, Ac-[D-Phe(2,4-DiCl)]-Pro(diF)-Asn-Thr-Phe-azaGly-Leu-Arg(Me)-Trp-NH2] (Ac-[dPhe(2,4-Cl2)][Pro(4,4-F2)]NTF[azaGly]L[Arg(Me)]W-NH2) | 9.63 h |

Biological target: T1, human kiss1 receptor (GPR54) (Homo sapiens, UniProt Q969F8)
T1 construct: host or cells: NFAT-bla CHO-K1 cells (Chinese hamster ovary), purchased recombinant cell line
Assay: Kiss1 receptor (GPR54) binding activity of agonists, FRET detection in NFAT-bla CHO-K1 cells
Format: cell-based
Settings: GPR54; measured according to the method of effect Embodiment 1; preliminary data; read-out: Preliminary measurement data (GPR54) EC50

T1 sequence (Q969F8 whole entry): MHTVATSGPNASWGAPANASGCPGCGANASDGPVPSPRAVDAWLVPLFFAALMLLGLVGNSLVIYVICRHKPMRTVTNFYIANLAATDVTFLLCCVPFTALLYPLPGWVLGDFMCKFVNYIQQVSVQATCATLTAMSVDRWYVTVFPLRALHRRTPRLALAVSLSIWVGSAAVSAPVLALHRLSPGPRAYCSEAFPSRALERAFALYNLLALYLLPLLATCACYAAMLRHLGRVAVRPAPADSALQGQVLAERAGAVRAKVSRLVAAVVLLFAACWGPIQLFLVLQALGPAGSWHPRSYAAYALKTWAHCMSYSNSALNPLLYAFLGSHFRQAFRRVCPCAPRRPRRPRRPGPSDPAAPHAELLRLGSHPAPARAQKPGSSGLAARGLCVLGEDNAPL

| SMILES | EC50 |
| --- | --- |
| CNC(=N)NCCC[C@H](NC(=O)[C@H](CC(C)C)NC(=O)C1(NC(=O)[C@H](Cc2ccccc2)NC(=O)[C@@H](NC(=O)[C@H](CC(N)=O)NC(=O)[C@H](Cc2cccs2)NC(=O)[C@@H](Cc2ccc(F)cc2)NC(C)=O)[C@@H](C)O)CCCCC1)C(=O)N[C@@H](Cc1c[nH]c2ccccc12)C(N)=O [YA-199, Ac-[D-Phe(4-F)]-Thi-Asn-Thr-Phe-A6c-Leu-Arg(Me)-Trp-NH2] (Ac-[dPhe(4-F)][2Thi]NTF[Ac6c]L[Arg(Me)]W-NH2) | 15.6 nM |
| CNC(=N)NCCC[C@H](NC(=O)[C@H](CC(C)C)NC(=O)[C@@H]1CCN1C(=O)[C@H](Cc1ccccc1)NC(=O)[C@@H](NC(=O)[C@H](CC(N)=O)NC(=O)[C@@H]1CCCCN1C(=O)[C@@H](Cc1ccc(O)cc1)NC(C)=O)[C@@H](C)O)C(=O)N[C@@H](Cc1c[nH]c2ccccc12)C(N)=O [YA-194, Ac-D-Tyr-(S-Pip)-Asn-Thr-Phe-Aze-Leu-Arg(Me)-Trp-NH2] (Ac-[dY][Pip]NTF[Aze]L[Arg(Me)]W-NH2) | 0.544 nM |
| CNC(=N)NCCC[C@H](NC(=O)[C@H](CC(C)C)NC(=O)[C@@H]1CCN1C(=O)[C@H](Cc1ccccc1)NC(=O)[C@@H](NC(=O)[C@H](CC(N)=O)NC(=O)[C@H](Cc1cccs1)NC(=O)[C@@H](Cc1ccc(O)cc1)NC(C)=O)[C@@H](C)O)C(=O)N[C@@H](Cc1c[nH]c2ccccc12)C(N)=O [YA-191, Ac-D-Tyr-Thi-Asn-Thr-Phe-Aze-Leu-Arg(Me)-Trp-NH2] (Ac-[dY][2Thi]NTF[Aze]L[Arg(Me)]W-NH2) | 0.521 nM |
| CNC(=N)NCCC[C@H](NC(=O)[C@H](CC(C)C)NC(=O)N1CCCN1C(=O)[C@H](Cc1ccccc1)NC(=O)[C@@H](NC(=O)[C@H](CC(N)=O)NC(=O)[C@@H]1C[C@@H](O)CN1C(=O)[C@@H](Cc1ccc(Cl)cc1Cl)NC(C)=O)[C@@H](C)O)C(=O)N[C@@H](Cc1c[nH]c2ccccc12)C(N)=O [YA-184, Ac-[D-Phe(2,4-DiCl)]-Hyp-Asn-Thr-Phe-azaPro-Leu-Arg(Me)-Trp-NH2] (Ac-[dPhe(2,4-Cl2)][Hyp]NTF[azaPro]L[Arg(Me)]W-NH2) | 48 nM |
| CNC(=N)NCCC[C@H](NC(=O)[C@H](CC(C)C)NC(=O)[C@@H]1CCN1C(=O)[C@H](Cc1ccccc1)NC(=O)[C@@H](NC(=O)[C@H](CC(N)=O)NC(=O)[C@@H]1CC(F)(F)CN1C(=O)[C@@H](Cc1ccc(F)cc1)NC(C)=O)[C@@H](C)O)C(=O)N[C@@H](Cc1c[nH]c2ccccc12)C(N)=O [YA-213, Ac-[D-Phe(4-F)]-Pro(diF)-Asn-Thr-Phe-Aze-Leu-Arg(Me)-Trp-NH2] (Ac-[dPhe(4-F)][Pro(4,4-F2)]NTF[Aze]L[Arg(Me)]W-NH2) | 0.4 nM |
| CCCCCCCCCCCCCCCCSC1CC(=O)N(CCOCCOCCOCCOCCOCCOCCOCCOCCC(=O)NCC(=O)NCC(=O)N[C@H](Cc2ccc(O)cc2)C(=O)N2C[C@H](O)C[C@H]2C(=O)N[C@@H](CC(N)=O)C(=O)N[C@H](C(=O)N[C@@H](Cc2ccccc2)C(=O)NNC(=O)N[C@@H](CC(C)C)C(=O)N[C@@H](CCCNC(=N)NC)C(=O)N[C@@H](Cc2c[nH]c3ccccc23)C(N)=O)[C@@H](C)O)C1=O (stereo partly drawn) [YA-368, M10 [Hexadecyl-S-maleimide-PEG8, G43, G44, D-Tyr45, Hyp46, des47, T49, AzaGly51, R(Me)53, W54]] (X13-GG[dY][Hyp]NTF[azaGly]L[Arg(Me)]W-NH2) | 0.051 nM |
| CNC(=N)NCCC[C@H](NC(=O)[C@H](CC(C)C)NC(=O)NNC(=O)[C@H](Cc1ccccc1)NC(=O)[C@@H](NC(=O)[C@H](CC(N)=O)NC(=O)[C@](C)(CC(C)C)NC(=O)[C@@H](Cc1ccc(O)cc1)NC(C)=O)[C@@H](C)O)C(=O)N[C@@H](Cc1c[nH]c2ccccc12)C(N)=O [YA-379, Ac-(D-Tyr)-AlphaMeLeu-Asn-Thr-Phe-azaGly-Leu-Arg(Me)-Trp-NH2] (Ac-[dY][αMeL]NTF[azaGly]L[Arg(Me)]W-NH2) | 0.015 nM |

Same assay, conditions: human kiss1 receptor (GPR54), NFAT-bla CHO-K1 cells, FRET; preliminary data; method of effect Embodiment 1; read-out: Preliminary measurement data (GPR54) EC50

| SMILES | EC50 |
| --- | --- |
| CNC(=N)NCCC[C@H](NC(=O)[C@H](CC(C)C)NC(=O)C1(NC(=O)[C@H](Cc2ccccc2)NC(=O)[C@@H](NC(=O)[C@H](CC(N)=O)NC(=O)C2(NC(=O)[C@@H](Cc3ccc(Cl)cc3Cl)NC(C)=O)CCCCC2)[C@@H](C)O)CCCCC1)C(=O)N[C@@H](Cc1c[nH]c2ccccc12)C(N)=O [YA-259, Ac-D-Phe(2,4-DiCl)-A6c-Asn-Thr-Phe-Abc-Leu-Arg(Me)-Trp-NH2] (Ac-[dPhe(2,4-Cl2)][Ac6c]NTF[Ac6c]L[Arg(Me)]W-NH2) | 3.2 nM |
| CNC(=N)NCCC[C@H](NC(=O)[C@H](CC(C)C)NC(=O)[C@H](CC1CCC1)NC(=O)[C@H](Cc1ccccc1)NC(=O)[C@@H](NC(=O)[C@H](CC(N)=O)NC(=O)[C@@H]1C[C@@H](O)CN1C(=O)[C@@H](Cc1ccc(O)cc1)NC(C)=O)[C@@H](C)O)C(=O)N[C@@H](Cc1c[nH]c2ccccc12)C(N)=O [YA-284, Ac-(D-Tyr)-Hyp-Asn-Thr-Phe-Cba-Leu-Arg(Me)-Trp-NH2] (Ac-[dY][Hyp]NTF[Cba]L[Arg(Me)]W-NH2) | 1.7 nM |
| CNC(=N)NCCC[C@H](NC(=O)[C@H](CC(C)C)NC(=O)C1(CNC(=O)[C@H](Cc2ccccc2)NC(=O)[C@@H](NC(=O)[C@H](CC(N)=O)NC(=O)[C@@H]2C[C@@H](O)CN2C(=O)[C@@H](Cc2ccc(O)cc2)NC(C)=O)[C@@H](C)O)CC1)C(=O)N[C@@H](Cc1c[nH]c2ccccc12)C(N)=O [YA-289, Ac-(D-Tyr)-Hyp-Asn-Thr-Phe-ACPA-Leu-Arg(Me)-Trp-NH2] (Ac-[dY][Hyp]NTF[cPrCO(1-aminomethyl)]L[Arg(Me)]W-NH2) | 42.6 nM |
